Experimental data: the CheMixHub viscosity set
Values joined by “and” are separate entries in the source; they are usually repeats but may differ in a detail not shown here. Equal entries are not always repeated.

Assay: xn = mol fraction of the nth substance listed
Conditions: 101 kPa

NCCN + CC(O)CO
viscosity [mPa·s]
Conditions	293.15 K	298.15 K	303.15 K	308.15 K	313.15 K	318.15 K
x2 = 0.0399	1.85	1.64	1.48	1.33	1.2	1.08
x2 = 0.0807	2.29	2	1.82	1.62	1.43	1.29
x2 = 0.1223	2.72	2.49	2.23	1.95	1.81	1.54
x2 = 0.1649	3.73	3.14	2.84	2.47	2.21	1.89
x2 = 0.2084	4.73	4.04	3.54	3.02	2.63	2.28
x2 = 0.2529	6.26	5.27	4.5	3.9	3.33	–
x2 = 0.2984	8.74	7.05	6	5.01	4.23	–
x2 = 0.3449	11.9	9.4	7.92	6.61	5.49	–
x2 = 0.3926	16.9	12.4	10.5	8.39	6.94	–
x2 = 0.4413	22.8	16.9	13.6	10.7	8.8	–
x2 = 0.4912	30.5	22.5	17.7	13.7	11	–
x2 = 0.5423	39.6	28.8	22.7	17.2	13.6	–
x2 = 0.5946	48.1	34.7	27.4	20.6	16.1	–
x2 = 0.6483	55.8	41.5	31.7	23.6	18.5	–
x2 = 0.7032	62.6	46.3	35.2	25.9	20.3	–
x2 = 0.7596	66.6	49.7	37.8	27.6	21.6	–
x2 = 0.8174	66.8	49.9	38.4	28.4	22.2	–
x2 = 0.8767	64.5	48.8	37.4	27.4	22.1	–
x2 = 0.9375	60.7	46.2	35.5	26.2	21.1	–

CCC(O)CO (stereo unspecified) + O
viscosity
Conditions	293.15 K	298.15 K	303.15 K	308.15 K	313.15 K	318.15 K	323.15 K
x1 = 0.005	1.087 mPa·s	0.964 mPa·s	0.865 mPa·s	0.783 mPa·s	–	–	–
x1 = 0.0099	–	–	0.935 mPa·s	0.838 mPa·s	0.756 mPa·s	0.687 mPa·s	0.628 mPa·s
x1 = 0.01	1.188 mPa·s	1.034 mPa·s	0.919 mPa·s	0.824 mPa·s	–	–	–
x1 = 0.015	1.285 mPa·s	1.129 mPa·s	0.978 mPa·s	–	–	–	–
x1 = 0.02	1.372 mPa·s	1.204 mPa·s	1.099 mPa·s and 1.052 mPa·s	0.976 mPa·s	0.874 mPa·s	0.789 mPa·s	0.716 mPa·s
x1 = 0.0299	–	–	1.268 mPa·s	1.117 mPa·s	0.993 mPa·s	0.89 mPa·s	0.802 mPa·s
x1 = 0.0401	–	–	1.459 mPa·s	1.275 mPa·s	1.126 mPa·s	1.002 mPa·s	0.9 mPa·s
x1 = 0.0496	–	–	1.639 mPa·s	1.422 mPa·s	1.247 mPa·s	1.104 mPa·s	0.986 mPa·s
x1 = 0.0599	–	–	1.856 mPa·s	1.599 mPa·s	1.394 mPa·s	1.229 mPa·s	1.092 mPa·s
x1 = 0.0701	–	–	2.073 mPa·s	1.776 mPa·s	1.54 mPa·s	1.351 mPa·s	1.193 mPa·s
x1 = 0.0799	–	–	2.279 mPa·s	1.944 mPa·s	1.679 mPa·s	1.467 mPa·s	1.292 mPa·s
x1 = 0.0899	–	–	2.493 mPa·s	2.12 mPa·s	1.823 mPa·s	1.587 mPa·s	1.395 mPa·s
x1 = 0.0999	–	3.41 mPa·s	2.736 mPa·s and 2.855 mPa·s	2.311 mPa·s and 2.445 mPa·s	1.98 mPa·s and 2.138 mPa·s	1.718 mPa·s	1.506 mPa·s
x1 = 0.2006	–	6.704 mPa·s	5.489 mPa·s	4.586 mPa·s	3.907 mPa·s	–	–
x1 = 0.3009	–	10.27 mPa·s	8.312 mPa·s	6.887 mPa·s	5.759 mPa·s	–	–
x1 = 0.4001	–	14.49 mPa·s	11.54 mPa·s	9.39 mPa·s	7.779 mPa·s	–	–
x1 = 0.5025	–	19.54 mPa·s	15.45 mPa·s	12.42 mPa·s	10.14 mPa·s	–	–
x1 = 0.5987	–	25.28 mPa·s	19.39 mPa·s	15.5 mPa·s	12.54 mPa·s	–	–
x1 = 0.702	–	31.76 mPa·s	24.06 mPa·s	18.94 mPa·s	15.12 mPa·s	–	–
x1 = 0.8038	–	38.27 mPa·s	28.82 mPa·s	22.48 mPa·s	17.7 mPa·s	–	–
x1 = 0.8972	–	45.12 mPa·s	33.44 mPa·s	25.72 mPa·s	20.14 mPa·s	–	–
